Data: patent US20240293557A1, “PROTEOLYSIS TARGETING CHIMERAS AND METHODS OF USE THEREOF” (University of Maryland, Baltimore, priority 2021, published 2024)
“Also recorded” adds a separate entry of the source. Like-named read-outs stand apart in the source and are kept apart here.

What was measured:
CDK9 = CDK9 (Homo sapiens (Human), UniProt P50750); experiment: CDK9 activity assay (Nanosyn microfluidics mobility shift platform); assay type: biochemical
Description: CDK9 activity assays were performed by Nanosyn using a microfluidics mobility shift platform. In this assay, a fluorescently labeled substrate is incubated with the enzyme in the presence of test compounds. Samples are run through microfluidic chips, separating them based on differences in charge; this separates the more positive substrate from the more negative product. Enzyme activity is measured through comparison of the fluorescence from substrate and product peaks.

MOLM14 cells = experiment: alamarBlue cell viability assay of MOLM14 cells; assay type: cell-based; settings: Homo sapiens, MOLM-14
Description: In vitro evaluations. All 36 PROTACs are evaluated in the relevant kinase assays, and those with Ki values >10-fold weaker than the parent drug are not advanced further. […] Next, the IC50s of lead indirect MCL-1 PROTACs are determined by alamarBlue cell viability assays of four human AML cell lines.
Both MOLM14 and MV4;11 AML cell lines are relatively sensitive to VEN in vitro; harbor a FLT3-ITD mutation plus an MLL rearrangement, two relatively common poor-prognosis AML mutations (both cells lines also contain additional mutations); and are dependent on MCL-1 and BCL-2, and express relatively high levels of both. In addition, both MOLM14 and MV4;11 are sensitive to CDK9 inhibitors, PI3K/mTOR inhibitors and MEK inhibitors. […] Three repeats of each IC50 determination assay are performed for each compound against each of these four AML cell lines. Multiple compounds are tested against all four AML cell lines at once, using alamarBlue microplate assays previously described. Specifically, cell lines are treated with vehicle (negative control), PROTAC alone, parent (non-PROTAC) drug alone, VEN alone, the combination of parent drug+VEN, and the combination of PROTAC+VEN, each at multiple concentrations, and IC50s in the AML cell lines determined. […] Western blotting is conducted after treatment of cells with the active PROTACs to determine if dose-dependent reduction of MCL-1 and CDK9 or PI3K/mTOR or MEK proteins is observed.
Cell viability of MOLM14 cells was measured in presence of test compounds via alamarBlue assay. This is a colorimetric assay that uses resazurin, a reduction-oxidation indicator. After incubation, resazurin is added to the test wells. The reduced form of resazurin is resorufin, which is pink and highly fluorescent. This can be measured through absorbance or fluorescence and is proportional to the amount of living cells.

[1] = system: MOLM14 MCL1 OE cloned cell lines; experiment: 48 h alamarBlue cell viability assay of MOLM14 MCL1 OE cloned cell lines; assay type: cell-based, human; settings: MOLM14 MCL1 OE cloned cell lines vs control cell lines
Description: Method: OLM14 AML cell were lentivirally transduced to overexpress MCL1. […] MOLM14 AML cells were transduced with lentiviral expression vector (LV) pWCC43 backbone containing EF1a—driven GFP and Ubiquitin (Ub)-driven MCL1, or control empty LV without MCL1, or control LV containing Luc in place of MCL1, and then single-cell subcloned.

[2] = system: Luc-labelled MOLM14 AML cells; experiment: Luc-labelled MOLM14 AML xenograft in NRG mice, venetoclax monotherapy or combinations; assay type: in vivo, mouse; settings: MOLM14 AML-bearing NRG mice; for AML burden (fold-change total body luminescence vs d0): two 5 d treatment cycles (d1-5, d21-25), imaging d7/d14/d21, vs vehicle
Description: Next, these two compounds are tested at their MTD(s) in a 5 d schedule that utilized to evaluate VEN-based combinations against a luciferase (Luc)-labelled MOLM14 human AML cell line xenograft model. NRG mice are infused with Luc-labelled MOLM14 AML cells on day -10. After Xenogen quantification of baseline total body luminescence on d0, mice are placed into experimental groups balanced for AML burden. Each experiment to evaluate the two selected indirect MCL-1 PROTACs in vivo involves 10 groups of 5 MOLM14 AML-bearing mice treated with: (1) vehicle, (2-3) lead PROTACs, (4-5) corresponding parent drugs, (6) VEN, (7-8) corresponding parent drugs+VEN and (9-10) lead PROTACs+VEN. […] and VEN are administered at the same molar concentration as the novel PROTACs; additional control groups are needed if the MTDs of the two PROTACs differ. MOLM14 AML-bearing NRG mice are dosed daily PO on dl-5 and d21-25, assessed for AML burden by Xenogen imaging on d7, d14, and d21, and monitored until clinical signs dictate need for euthanasia (projected average 10 weeks). Primary response endpoints are AML response quantitation (fold-change in AML burden on d7/14/21 vs d0 for each mouse) via imaging. Comparisons of quantitative imaging results are confirmed by Kaplan-Meier survival analyses. In addition, the two selected PROTACs are similarly tested against a Luc-labelled MV4;11 cell line xenograft model. […]
Thus, the proposed sample size (5 mice/group) is expected to provide sufficient power for statistical analyses (at p<0.05 level; α=0.05, β=0.1), which is estimated with the standard deviation of AML burden over time monitored and the expected drug efficacy differences. […] AML burden is quantified using log transformed ratio of luminescence at d7/14/21 vs d0 for each mouse (fold-change); groups are compared using the appropriate parametric (ANOVA; t-test, etc) or non-parametric alternative as necessary (Wilcoxon rank sum, Kruskal-Wallis). […]
Two of the parent drug candidates are synthesized but the syntheses are published and short. […] The indirect MCL-1 PROTAC candidates are evaluated in the kinase assays as they are synthesized. […] On d0, after Xenogen quantification of baseline total body luminescence (AML burden), groups of 5 AML-bearing mice were treated on days 1-5, per a previously established MTD POx5d schedule, with VEN (150 mg/kg/d POx5), as monotherapy or co-administered with SOR (30 mg/kg/d POx5), ART (50 mg/kg/d POx5), and/or ASP (2001U/kg IP single dose). […] On d7, d14 and d21, each mouse was Xenogen imaged for total body luminescence, fold-change AML burden from d0 was calculated for each mouse, and mean (+/−SD) fold-change for each experimental group plotted. […]

[3] = MOLM14, 48 hr, read-out: Cell Viability (MOLM14 IC50-nM) 48 hr
[4] = MOLM14, 72 hr, read-out: Cell Viability (MOLM14 IC50-nM) 72 hr

Chain of CDK9 (P50750 whole entry): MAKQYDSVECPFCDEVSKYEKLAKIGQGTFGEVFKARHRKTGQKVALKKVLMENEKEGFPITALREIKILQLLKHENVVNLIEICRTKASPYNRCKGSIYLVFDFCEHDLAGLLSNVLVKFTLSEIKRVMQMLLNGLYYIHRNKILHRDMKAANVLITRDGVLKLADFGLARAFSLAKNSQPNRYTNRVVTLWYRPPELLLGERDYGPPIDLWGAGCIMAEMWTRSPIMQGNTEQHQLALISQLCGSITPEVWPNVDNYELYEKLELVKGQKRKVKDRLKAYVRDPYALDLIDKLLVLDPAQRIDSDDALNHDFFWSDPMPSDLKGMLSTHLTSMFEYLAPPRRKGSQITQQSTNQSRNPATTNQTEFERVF
Chain of CDK9 (O60563 whole entry partner): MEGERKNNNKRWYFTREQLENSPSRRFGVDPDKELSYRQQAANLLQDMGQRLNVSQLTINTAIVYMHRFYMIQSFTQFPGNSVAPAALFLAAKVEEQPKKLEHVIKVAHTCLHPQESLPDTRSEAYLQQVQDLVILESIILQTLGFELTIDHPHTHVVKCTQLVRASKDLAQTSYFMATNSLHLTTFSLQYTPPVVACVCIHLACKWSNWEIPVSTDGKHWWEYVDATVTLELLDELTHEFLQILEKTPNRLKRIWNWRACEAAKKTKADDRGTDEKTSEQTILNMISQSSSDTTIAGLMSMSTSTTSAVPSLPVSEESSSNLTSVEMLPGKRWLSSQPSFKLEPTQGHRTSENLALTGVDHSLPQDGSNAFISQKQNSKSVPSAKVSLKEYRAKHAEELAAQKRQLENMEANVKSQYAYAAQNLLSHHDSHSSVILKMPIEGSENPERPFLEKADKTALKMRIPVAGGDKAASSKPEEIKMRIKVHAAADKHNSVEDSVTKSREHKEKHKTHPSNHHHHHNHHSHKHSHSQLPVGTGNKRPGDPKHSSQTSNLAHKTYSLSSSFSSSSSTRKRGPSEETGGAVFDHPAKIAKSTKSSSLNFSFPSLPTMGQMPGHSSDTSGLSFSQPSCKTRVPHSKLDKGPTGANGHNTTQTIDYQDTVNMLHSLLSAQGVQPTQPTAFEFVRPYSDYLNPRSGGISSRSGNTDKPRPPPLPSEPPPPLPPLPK

| Molecule | IC50 (CDK9) | IC50 (MOLM14 cells; [3]) | IC50 (MOLM14 cells; [4]) | Sensitivity of MCL-1 overexpressing MOLM14 clones compared to control cell lines [1] | AML burden (fold-change total body luminescence vs d0) [2] | Kaplan-Meier survival ([2]; two 5 d treatment cycles, survival to d84, vs vehicle or monotherapy) |
| --- | --- | --- | --- | --- | --- | --- |
| O=C(COc1cccc2c1C(=O)N(C1CCC(=O)NC1=O)C2=O)NCCC(=O)N1CCC(NC(=O)c2n[nH]cc2NC(=O)c2c(Cl)cccc2Cl)CC1 (centres unmarked) [AMC-3-104] | 2.82 nM |  |  |  |  |  |
| CC(C)(C)OC(=O)N1CCC(NC(=O)c2n[nH]cc2NC(=O)c2c(Cl)cccc2Cl)CC1 [AMC-3-095] | 11.3 nM | 1680 nM | 2010 nM |  |  |  |
| O=C(NC1CCNCC1)c1n[nH]cc1NC(=O)c1c(Cl)cccc1Cl [AMC-3-098, N-(4-Piperidinyl)-4-(2,6-dichlorobenzoylamino)-1H-pyrazole-3-carboxamide, reference compound] |  | 178 nM | 460 nM |  |  |  |
| Cc1c(-c2c(-c3ccc(F)o3)sc3ncnc(O[C@H](Cc4ccccc4OCc4ccnn4CC(F)(F)F)C(=O)O)c23)ccc(OCCN2CCN(C)CC2)c1Cl [S63845] |  |  |  | reduced sensitivity |  |  |
| CC1(C)CCC(CN2CCN(c3ccc(C(=O)NS(=O)(=O)c4ccc(NCC5CCOCC5)c([N+](=O)[O-])c4)c(Oc4cnc5[nH]ccc5c4)c3)CC2)=C(c2ccc(Cl)cc2)C1 [VEN, venetoclax] |  |  |  | more resistant | no detectable effect; also recorded: minimal activity | no detectable effect |
| O=C1CCC(N2C(=O)c3cccc(OCC(=O)N4CCC(NC(=O)CN5CCC(NC(=O)c6n[nH]cc6NC(=O)c6c(Cl)cccc6Cl)CC5)CC4)c3C2=O)C(=O)N1 (centres unmarked) [AMC-3-106] | 3.04 nM | 6070 nM | 8170 nM |  |  |  |
| O=C(COc1cccc2c1C(=O)N(C1CCC(=O)NC1=O)C2=O)NCCOCCNC(=O)CN1CCC(NC(=O)c2n[nH]cc2NC(=O)c2c(Cl)cccc2Cl)CC1 (centres unmarked) [CG-3-066] | 3.32 nM | 1970 nM | 1690 nM |  |  |  |
| O=C(COc1cccc2c1C(=O)N(C1CCC(=O)NC1=O)C2=O)NCCCCCCC(=O)N1CCC(NC(=O)c2n[nH]cc2NC(=O)c2c(Cl)cccc2Cl)CC1 (centres unmarked) [CG-3-071] | 2.85 nM | 1710 nM | 1910 nM |  |  |  |
| CC(C)(C)OC(=O)CN1CCC(NC(=O)c2n[nH]cc2NC(=O)c2c(Cl)cccc2Cl)CC1 [AMC-3-086] | 11 nM | 1560 nM | 1590 nM |  |  |  |
| O=C(COc1cccc2c1C(=O)N(C1CCC(=O)NC1=O)C2=O)NCCOCCOCCNC(=O)CN1CCC(NC(=O)c2n[nH]cc2NC(=O)c2c(Cl)cccc2Cl)CC1 (centres unmarked) [CG-3-067] | 3.89 nM | 4320 nM | 7150 nM |  |  |  |
| CNC(=O)c1cc(Oc2ccc(NC(=O)Nc3ccc(Cl)c(C(F)(F)F)c3)cc2)ccn1 [SOR, Sorafenib] |  |  |  |  | reduced AML burden only moderately; also recorded: significant difference in AML burden only at d7 and d14 |  |
| O=C(COc1cccc2c1C(=O)N(C1CCC(=O)NC1=O)C2=O)NCCNC(=O)CN1CCC(NC(=O)c2n[nH]cc2NC(=O)c2c(Cl)cccc2Cl)CC1 (centres unmarked) [AMC-3-097] | 3.96 nM |  |  |  |  |  |
| O=C(CNC(=O)COc1cccc2c1C(=O)N(C1CCC(=O)NC1=O)C2=O)NCCCCCCC(=O)N1CCC(NC(=O)c2n[nH]cc2NC(=O)c2c(Cl)cccc2Cl)CC1 (centres unmarked) [SF-8-141] | 4.49 nM |  |  |  |  |  |
| O=C1CCC(N2C(=O)c3cccc(OCC(=O)N4CCC(C(=O)N5CCC(NC(=O)c6n[nH]cc6NC(=O)c6c(Cl)cccc6Cl)CC5)CC4)c3C2=O)C(=O)N1 (centres unmarked) [SF-8-140] | 1.66 nM | 3000 nM | 1820 nM |  |  |  |
| PEGylated L-asparaginase |  |  |  |  | minimal activity |  |
